Data taken from PubChem BioAssay AID1996.
≈ marks a conversion by molar mass, not a printed value.

Conditions: buffer; pH 7.4; 200.0 µM

Row | solubility kinetic [µg/mL] | Compound
1 | > 47.2 | CCOc1ncccc1C(=O)Nc1ccc2c(c1)OCCCO2
2 | > 33.5 | Cc1nn2c(nc1=O)NNC2(C)C(C)(C)C (configuration not stated)
3 | 48.6 (≈ 132 µM) | CCc1ccc(S(=O)(=O)Nc2ccc(C)c(NS(C)(=O)=O)c2)cc1
4 | > 42.8 | Nc1nc(-c2ccc(NC(=O)c3ccco3)cc2)cs1
5 | 35.8 (≈ 150 µM) | Cc1ccccc1N1C(=O)c2ccccc2C1O (configuration not stated)
6 | > 43.3 | CC1Oc2ccccc2N(CC(=O)N2CCCCC2)C1=O (configuration not stated)
7 | > 48.5 | Cc1cc2c(SCC(=O)NCC3CCCO3)ncnc2s1 (configuration not stated)
8 | 2.6 (≈ 5.25 µM) | CCN(c1ccccc1)S(=O)(=O)c1cccc(C(=O)OCC(=O)Nc2ccc(NC(C)=O)cc2)c1
9 | > 51.4 | COC(=O)[C@H](CCSC)NC(=O)Nc1cc(OC)cc(OC)c1
10 | 53.1 (≈ 139 µM) | COc1ccc(CN(C)C(=O)COC(=O)c2cnc(Cl)c(Cl)c2)cc1
11 | 3 (≈ 9.78 µM) | COc1ccc(CNC(=S)Nc2cccc(Cl)c2)cc1
12 | 0.9 (≈ 2.8 µM) | O=C(NCCCSc1ccccc1)c1cc(Cl)ccc1O
13 | > 42.6 | CCc1noc(C)c1C(=O)Nc1ccc(F)c(F)c1F
14 | 37.8 (≈ 97.6 µM) | NS(=O)(=O)c1ccc(NC(=O)COC(=O)Cc2c[nH]c3ccccc23)cc1
15 | 4.5 (≈ 15.1 µM) | Cc1ccc(NC(=O)CCCc2ccccc2)c([N+](=O)[O-])c1
16 | < 0.4 | Cc1cccc(N2C(=NC(=O)c3ccccc3)SC3CS(=O)(=O)CC32)c1 (configuration not stated)
17 | > 29.1 | Nc1nc(-c2ccc(F)cc2)cs1
18 | > 60.5 | CCOC(=O)CCNC(=O)N1CCCC(CNS(=O)(=O)c2cccs2)C1 (configuration not stated)
19 | 46.5 (≈ 140 µM) | CCc1sc(C(=O)N2CCCN(C)CC2)cc1Br
20 | > 47.4 | CC(=O)c1cc2c(cc1NC(=O)Cc1c(C)noc1C)OCO2
21 | 34 (≈ 115 µM) | Cc1ncc([N+](=O)[O-])n1CC(=O)Nc1ccc(F)cc1F
22 | 47.5 (≈ 140 µM) | CCCC(=O)Nc1ccccc1NC(=O)c1ccc(OC(C)=O)cc1
23 | > 52.4 | CN(c1cccc(NC(=O)c2cccc([N+](=O)[O-])c2)c1)S(C)(=O)=O

Row | solubility kinetic [µg/mL] | Compound
24 | > 30.9 | Nc1c([N+](=O)[O-])c(=O)oc2ccccc12
25 | 4.5 (≈ 14.9 µM) | CC(C)c1nc2sc3c(=S)nc[nH]c3c2c2c1CCC2
26 | 40.1 (≈ 123 µM) | COc1ccccc1OCCCN1C(=O)C(=O)c2cccc(C)c21
27 | > 53.9 | Cc1cc(N2CCOCC2)nc(SCC(=O)OCc2ccccc2)n1
28 | 45.4 (≈ 127 µM) | Cc1ccc(C)c(NC(=S)N2CCC(NC(=O)c3ccco3)CC2)c1
29 | 45.7 (≈ 131 µM) | CCCCNC(=NCc1cccc(C(F)(F)F)c1)Nc1ccccc1
30 | 15.4 (≈ 49.7 µM) | Cc1cc(OCC(=O)N(C)C2CCCCC2)cc(C)c1Cl
31 | 39.2 (≈ 84.4 µM) | CS(=O)(=O)c1ccc(C(=O)OCC(=O)NC(=O)C2COc3ccccc3O2)cc1[N+](=O)[O-] (configuration not stated)
32 | 13.6 (≈ 39.7 µM) | CC(C)S(=O)(=O)c1csc(C(=O)Nc2ccc(F)cc2)c1N
33 | 2.9 (≈ 8.53 µM) | O=C(NCCc1ccc(F)cc1)c1coc(=O)c(Br)c1
34 | > 70.9 | COc1ccc(Br)cc1/C=C(\C(=O)O)c1ccc(S(=O)(=O)N2CCCC2)s1
35 | > 41.3 | O=C1N=C(N2CCOCC2)S/C1=C\c1ccncc1
36 | 2.9 (≈ 6.34 µM) | COc1ccc(NS(=O)(=O)c2cccc(NC(=O)COc3ccccc3[N+](=O)[O-])c2)cc1
37 | 43.3 | CC(c1ccccc1)N1CCN(C(=O)CCl)CC1.Cl (configuration not stated)
38 | 0.8 (≈ 2.5 µM) | CCOC(=O)c1csc(NC(=O)c2ccc(OCC)cc2)n1
39 | 32.3 (≈ 129 µM) | Cn1ccnc1SCC(=O)c1ccc(F)cc1
40 | 6.8 (≈ 31.9 µM) | c1ccc2c(c1)CSc1ccccc1N2
41 | 37.3 (≈ 142 µM) | Nc1ccc(C(=O)Nc2cccc3ncccc23)cc1
42 | 23.2 (≈ 66.2 µM) | CS(=O)(=O)Nc1ccccc1N=C(c1ccccc1)c1ccccc1
43 | 14.7 (≈ 52.8 µM) | C=CCn1c(=S)[nH]c2sc3c(c2c1=O)CCCC3
44 | > 42.2 | O=C(O)c1cccc(CN2C(=O)c3ccccc3C2=O)c1
45 | > 41 | COc1ccccc1CNC(=O)c1nccnc1CO

Row | Compound | solubility kinetic [µg/mL]
46 | CC1CCN(C(=O)C(C)Cl)CC1 (configuration not stated) | 11.1 (≈ 58.5 µM)
47 | CC1(C)C2SCC(=O)N2CCN1CC(=O)NN (configuration not stated) | > 38.8
